This passage reports IC50 results from patent publication US10030007B2, “Quinazolin-THF-amines as PDE1 inhibitors” (H. Lundbeck A/S, priority 2013, dated 2018).

A word on the IC50: it is the concentration that inhibits the measured activity by half. High values mean lower potency, low ones higher potency.

Molecules are shown by their SMILES.

What all share (format): biochemical
What all share (conditions): 15 nM tritium labelled cAMP, 1 h at room temperature, SPA beads

For one test, the target named is PDE1A (Homo sapiens, UniProt P54750). Nature of the test: PDE1 inhibition assay (SPA), PDE1A. On the procedure:
(§1) PDE1A, PDE1B and PDE1C assays were performed as follows: the assays was performed in 60 μL samples containing a fixed amount of the PDE1 enzyml (sufficient to convert 20-25% of the cyclic nucleotide substrate), a buffer (50 mM HEPES pH 7.6; 10 mM MgCl2; 0.02% Tween20), 0.1 mg/ml BSA, 15 nM tritium labelled cAMP and varying amounts of inhibitors. Reactions were initiated by addition of the cyclic nucleotide substrate, and reactions were allowed to proceed for 1 h at room temperature before being terminated through mixing with 20 μL (0.2 mg) yttrium silicate SPA beads (PerkinElmer). The beads were allowed to settle for 1 h in the dark before the plates were counted in a Wallac 1450 Microbeta counter. The measured signals were converted to activity relative to an uninhibited control (100%) and IC50 values were calculated using XlFit (model 205, IDBS).

A further test deals with PDE1C (Homo sapiens, UniProt Q14123). Nature of the test: PDE1 inhibition assay (SPA), PDE1C. On the procedure:
as §1

Another test addresses PDE1B (Homo sapiens, UniProt Q01064). Nature of the test: PDE1 inhibition assay (SPA), PDE1B. On the procedure:
as §1

Sequence of PDE1A (P54750 whole entry): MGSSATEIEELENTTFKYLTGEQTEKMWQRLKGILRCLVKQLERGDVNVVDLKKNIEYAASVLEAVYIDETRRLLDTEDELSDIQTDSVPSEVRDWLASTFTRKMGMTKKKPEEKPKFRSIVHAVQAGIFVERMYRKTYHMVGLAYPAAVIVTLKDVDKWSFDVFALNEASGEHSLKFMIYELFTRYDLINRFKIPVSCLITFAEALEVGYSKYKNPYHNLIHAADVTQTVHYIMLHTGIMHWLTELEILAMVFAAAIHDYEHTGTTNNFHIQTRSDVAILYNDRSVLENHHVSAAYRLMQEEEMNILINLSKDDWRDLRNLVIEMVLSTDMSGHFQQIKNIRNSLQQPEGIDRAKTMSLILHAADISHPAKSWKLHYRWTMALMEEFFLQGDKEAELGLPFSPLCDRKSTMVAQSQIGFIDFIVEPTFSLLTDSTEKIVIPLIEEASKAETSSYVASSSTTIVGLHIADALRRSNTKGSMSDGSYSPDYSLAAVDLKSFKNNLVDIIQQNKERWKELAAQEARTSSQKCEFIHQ
Sequence of PDE1C (Q14123 whole entry): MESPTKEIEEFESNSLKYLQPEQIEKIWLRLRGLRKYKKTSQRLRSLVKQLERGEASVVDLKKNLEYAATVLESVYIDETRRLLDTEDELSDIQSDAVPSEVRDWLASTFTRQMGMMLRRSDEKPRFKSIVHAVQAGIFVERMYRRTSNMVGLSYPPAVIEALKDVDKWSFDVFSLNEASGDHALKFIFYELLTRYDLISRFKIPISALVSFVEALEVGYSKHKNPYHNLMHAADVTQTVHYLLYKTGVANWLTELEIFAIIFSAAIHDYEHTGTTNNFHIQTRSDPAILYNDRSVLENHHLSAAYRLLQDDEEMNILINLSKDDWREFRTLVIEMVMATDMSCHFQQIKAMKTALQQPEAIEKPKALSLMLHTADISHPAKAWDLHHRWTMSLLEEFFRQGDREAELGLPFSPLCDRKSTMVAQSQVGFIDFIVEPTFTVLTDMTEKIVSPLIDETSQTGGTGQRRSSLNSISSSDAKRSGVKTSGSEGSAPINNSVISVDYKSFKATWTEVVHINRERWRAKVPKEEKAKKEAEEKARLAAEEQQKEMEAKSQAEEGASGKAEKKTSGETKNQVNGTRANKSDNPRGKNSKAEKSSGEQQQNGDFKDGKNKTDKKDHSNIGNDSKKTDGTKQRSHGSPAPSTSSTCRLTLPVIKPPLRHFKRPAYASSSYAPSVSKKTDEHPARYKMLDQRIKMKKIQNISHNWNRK
Sequence of PDE1B (Q01064 whole entry): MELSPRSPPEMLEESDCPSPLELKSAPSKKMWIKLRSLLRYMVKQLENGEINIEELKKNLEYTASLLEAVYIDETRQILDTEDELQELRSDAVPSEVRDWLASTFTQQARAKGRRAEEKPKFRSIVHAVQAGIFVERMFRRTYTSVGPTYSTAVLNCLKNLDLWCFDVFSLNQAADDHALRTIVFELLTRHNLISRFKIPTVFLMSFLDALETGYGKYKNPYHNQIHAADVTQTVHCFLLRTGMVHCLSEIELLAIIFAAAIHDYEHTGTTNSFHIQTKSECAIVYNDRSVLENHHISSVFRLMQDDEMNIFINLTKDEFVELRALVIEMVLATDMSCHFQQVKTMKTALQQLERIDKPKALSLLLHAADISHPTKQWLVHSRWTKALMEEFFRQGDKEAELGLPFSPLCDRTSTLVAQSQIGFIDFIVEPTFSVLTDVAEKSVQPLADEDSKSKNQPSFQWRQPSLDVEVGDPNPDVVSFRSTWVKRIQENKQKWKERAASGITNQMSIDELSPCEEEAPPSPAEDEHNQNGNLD

On to `COc1ccc2c(N[C@@H]3CCO[C@H]3C3CC3)ncnc2c1OC` (relative stereo) [Compound 2, trans-N-(-2-cyclopropyltetrahydrofuran-3-yl)-7,8-dimethoxyquinazolin-4-amine], for which the values for the IC50 against PDE1A, against PDE1C and on PDE1B were 2400 nM, 1300 nM and 260 nM, respectively.

Consider `COc1ccc2c(NC3CCOC3C3CC3)ncnc2c1OC` (stereo not drawn) [Compound 25, N-(2-Cyclopropyltetrahydrofuran-3-yl)-7,8-dimethoxyquinazolin-4-amine], for which the figures for the IC50 against PDE1A, against PDE1C and against PDE1B were 2400 nM, 1300 nM and 260 nM, respectively.
